Measurements reported in PubChem BioAssay (NCI).
“And” between values parts separate entries of the source, which are not always exact repeats. Identical values can stand only once.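 Assay format: 96-well plates, 48-hour exposure. GI50 is the concentration that inhibits growth by half. TGI: total growth inhibition.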

Each compound was assayed on LXFL 529 NSCLC (assay: growth of human tumour cells (NCI), 48 h).
Compound Cc1cccc(NC(=O)C(=O)C(C(=O)c2ccc3ccccc3c2)C2OC(=O)c3ccccc32)c1C (configuration not stated) has a TGI of 22.4 µM. For CS/C(N)=N\NC(=O)CCC(=O)Nc1ccccc1C(F)(F)F, the TGI was > 100 µM. With CC(=O)/C(C)=N/NC(=O)c1ccccc1O the TGI was > 10 µM. Compound CC(=O)[O-].CCN(CC)c1ccc(C=NCCN=Cc2ccc(N(CC)CC)cc2[O-])c([O-])c1.[Mn+3] has a GI50 of 22.5 µM and a TGI of 44.1 µM. For NC(N)=N/N=C(\c1nc2ccc([N+](=O)[O-])cc2[nH]c1=O)C(O)c1ccc([N+](=O)[O-])cc1 (configuration not stated), the TGI was > 100 µM. CCC[CH2][Sn]1([CH2]CCC)[O]CC(CN2CCCC2)[O]1 (configuration not stated) gave a GI50 of 4.33 µM and a TGI of 15.3 µM. In the case of CC1(C)C(=O)N(CCCCCCN2C(=O)C(C)(C)c3ccccc32)c2ccccc21, the TGI is reported as > 100 µM. COc1cc2c(c(OC)c1OC)-c1ccc(OC)c(=O)cc1[C@@H](NC(=O)c1ccccc1)CC2 was tested, and the TGI was > 100 µM. For NCCCCN(CCCN)/[N+]([O-])=N\O, the TGI was > 100 µM. CCOc1ccccc1NC(=O)CC(C(=O)OC)C(=O)C(=O)OC (configuration not stated) was tested, and the TGI was > 100 µM. COc1cccc2c1C(=O)c1c(O)c3c(c(O)c1C2=O)C[C@@](O)(C(C)=O)C[C@@H]3OC1OC(C)C(O)C(N)C1Br (some centres not stated) was tested, and the TGI was 1.12 µM. With COC(=O)C1=C(C)N(NC(=O)OC(C)(C)C)C(=O)C1=P(c1ccccc1)(c1ccccc1)c1ccccc1 the TGI was > 100 µM. O=C1OC(c2ccccc2)=N/C1=C\c1cccc2ccccc12 was tested, and the TGI was > 100 µM. Cc1cccc(NC(=O)/C(=N\NC(C)(C)C)C2NC(=S)NC2=O)c1C (configuration not stated) was tested, and the TGI was > 100 µM. With C[C@@H]1CC(=O)C2CCCC1C2=O (some centres not stated) the TGI was > 100 µM. In the case of c1ccc(CNn2nnc3ccccc32)cc1, the TGI is reported as > 100 µM.

Each compound was assayed on MALME-3M melanoma (assay: growth of human tumour cells (NCI), 48 h).
With Cc1nc(N)sc1C(=O)/C=C\c1ccc2c(c1)OCO2 the TGI was > 100 µM. COc1cc(C(C)O)c[n+](CCc2c[nH]c3ccccc23)c1 (configuration not stated) was tested, and the TGI was > 100 µM. CC1(C)SCc2nc3ncccc3n21 was tested, and the TGI was > 100 µM. For Cn1c(=O)c(C(c2ccc([N+](=O)[O-])cc2)c2c(O)c3ccccc3n(C)c2=O)cc2ccccc21 (configuration not stated), the TGI was 73.2 µM. With Cc1cn(C2CC(O)C(CO)O2)c(=O)n2nnnc12 (configuration not stated) the TGI was > 100 µM. In the case of COc1ccc(C(=O)C(C(=O)CCC(=O)Nc2cccc(Cl)c2)c2ccc(OC)cc2)cc1 (configuration not stated), the TGI is reported as > 100 µM. For CCOC(=O)C1=C(C)N(NC(=O)Nc2ccccc2)C(=O)C1=P(c1ccccc1)(c1ccccc1)c1ccccc1, the TGI was > 100 µM. For COc1cc(C=C2C(=O)NC(=O)NC2=O)cc(OC)c1OC, the TGI was > 100 µM. With Nn1c(=O)n(Cc2ccccc2)n(-c2ccccc2)c1=O the TGI was > 100 µM. Cc1ccc(C2=C(c3ccccc3)C(Br)(c3ccc(C)cc3)C(c3ccccc3)=C2c2ccc(C)cc2)cc1 was tested, and the TGI was > 100 µM. N#CCN1C(=O)c2cccc3cc([N+](=O)[O-])cc(c23)C1=O gave a TGI of 92.7 µM. In the case of O=C1CCN2C(=O)CCN12, the TGI is reported as > 100 µM. For CC1CC[C@]2(C(=O)O)CCC3(C)C(=CC(=O)C4[C@@]5(C)CCC(=O)C(C)(C)C5CC[C@]43C)[C@@H]2[C@H]1C (some centres not stated), the TGI was 80.3 µM. In the case of O=C(O)C1OC(n2cc(F)c(=O)[nH]c2=O)CC1O (configuration not stated), the TGI is reported as > 100 µM. In the case of CC(C)C(Nc1c2ccccc2nc2ccccc12)C(=O)O (configuration not stated), the TGI is reported as > 100 µM. With COc1ccccc1CCc1cc(OC)c(OC)c(OC)c1 the TGI was > 100 µM. COc1cc2c(cc1OC)C(CC(=O)NN=C(C)C)NCC2 (configuration not stated) was tested, and the TGI was > 100 µM. COC(=O)/C(=N\Nc1nnc(C)n1N)C(C#N)c1ccc(Cl)cc1 (configuration not stated) was tested, and the TGI was > 100 µM. Cc1cccc(NC(=O)C(=O)C(C(=O)c2ccc3ccccc3c2)C2OC(=O)c3ccccc32)c1C (configuration not stated) was tested, and the TGI was 21.7 µM. With CS/C(N)=N\NC(=O)CCC(=O)Nc1ccccc1C(F)(F)F the TGI was > 100 µM. With CC(=O)/C(C)=N/NC(=O)c1ccccc1O the GI50 was > 100 µM and the TGI was > 100 µM. With CC(C)(C)c1ccc2c(c1)S(=O)(=O)Nc1ccccc1NS(=O)(=O)c1cc(C(C)(C)C)ccc1OCCOCCOCCO2 the TGI was 97 µM. CC(=O)[O-].CCN(CC)c1ccc(C=NCCN=Cc2ccc(N(CC)CC)cc2[O-])c([O-])c1.[Mn+3] gave a GI50 of 18.4 µM and a TGI of 35.2 µM. NC(N)=N/N=C(\c1nc2ccc([N+](=O)[O-])cc2[nH]c1=O)C(O)c1ccc([N+](=O)[O-])cc1 (configuration not stated) was tested, and the TGI was > 100 µM. Work on CCC[CH2][Sn]1([CH2]CCC)[O]CC(CN2CCCC2)[O]1 (configuration not stated) yielded a GI50 of 4.59 µM and a TGI of 17.4 µM. CC1(C)C(=O)N(CCCCCCN2C(=O)C(C)(C)c3ccccc32)c2ccccc21 gave a TGI of 75.8 µM. For COc1cc2c(c(OC)c1OC)-c1ccc(OC)c(=O)cc1[C@@H](NC(=O)c1ccccc1)CC2, the GI50 was < 0.003 µM and the TGI was 30 µM and 80.1 µM. NCCCCN(CCCN)/[N+]([O-])=N\O was tested, and the TGI was > 100 µM. For CCOc1ccccc1NC(=O)CC(C(=O)OC)C(=O)C(=O)OC (configuration not stated), the TGI was > 100 µM. With COc1cccc2c1C(=O)c1c(O)c3c(c(O)c1C2=O)C[C@@](O)(C(C)=O)C[C@@H]3OC1OC(C)C(O)C(N)C1Br (some centres not stated) the GI50 was 0.0215 µM and the TGI was 0.297 µM and 0.225 µM. With COC(=O)C1=C(C)N(NC(=O)OC(C)(C)C)C(=O)C1=P(c1ccccc1)(c1ccccc1)c1ccccc1 the TGI was > 100 µM. With O=C1OC(c2ccccc2)=N/C1=C\c1cccc2ccccc12 the TGI was > 100 µM. With Cc1cccc(NC(=O)/C(=N\NC(C)(C)C)C2NC(=S)NC2=O)c1C (configuration not stated) the TGI was > 100 µM. In the case of C[C@@H]1CC(=O)C2CCCC1C2=O (some centres not stated), the TGI is reported as > 100 µM. For c1ccc(CNn2nnc3ccccc32)cc1, the TGI was > 100 µM. CN(C)C(=O)c1cc2cnc(Nc3ccc(-c4csc5c(=S)cc(N6CCOCC6)oc45)cc3)nc2n1C1CCCC1 gave a GI50 of 0.778 µM and a TGI of 31.1 µM. With COC1=CC(=O)c2nc(-c3cccc(C)n3)[nH]c2C1=O the GI50 was 20.8 µM and the TGI was 64.3 µM.

What follows are compounds tested on NCI-H460 lung (assay: growth of human tumour cells (NCI), 48 h).
Cc1nc(N)sc1C(=O)/C=C\c1ccc2c(c1)OCO2 was tested, and the TGI was > 100 µM. COc1cc(C(C)O)c[n+](CCc2c[nH]c3ccccc23)c1 (configuration not stated) was tested, and the TGI was > 100 µM. For CC1(C)SCc2nc3ncccc3n21, the TGI was > 100 µM. In the case of Cn1c(=O)c(C(c2ccc([N+](=O)[O-])cc2)c2c(O)c3ccccc3n(C)c2=O)cc2ccccc21 (configuration not stated), the TGI is reported as > 100 µM. In the case of Cc1cn(C2CC(O)C(CO)O2)c(=O)n2nnnc12 (configuration not stated), the TGI is reported as > 100 µM. COc1ccc(C(=O)C(C(=O)CCC(=O)Nc2cccc(Cl)c2)c2ccc(OC)cc2)cc1 (configuration not stated) was tested, and the TGI was > 100 µM. For CCOC(=O)C1=C(C)N(NC(=O)Nc2ccccc2)C(=O)C1=P(c1ccccc1)(c1ccccc1)c1ccccc1, the TGI was > 100 µM. COc1cc(C=C2C(=O)NC(=O)NC2=O)cc(OC)c1OC was tested, and the TGI was > 100 µM. For Nn1c(=O)n(Cc2ccccc2)n(-c2ccccc2)c1=O, the TGI was > 100 µM. In the case of Cc1ccc(C2=C(c3ccccc3)C(Br)(c3ccc(C)cc3)C(c3ccccc3)=C2c2ccc(C)cc2)cc1, the TGI is reported as > 100 µM. For N#CCN1C(=O)c2cccc3cc([N+](=O)[O-])cc(c23)C1=O, the TGI was > 100 µM. For O=C1CCN2C(=O)CCN12, the TGI was > 100 µM. With CC1CC[C@]2(C(=O)O)CCC3(C)C(=CC(=O)C4[C@@]5(C)CCC(=O)C(C)(C)C5CC[C@]43C)[C@@H]2[C@H]1C (some centres not stated) the TGI was > 100 µM. O=C(O)C1OC(n2cc(F)c(=O)[nH]c2=O)CC1O (configuration not stated) was tested, and the TGI was > 100 µM. CC(C)C(Nc1c2ccccc2nc2ccccc12)C(=O)O (configuration not stated) was tested, and the TGI was > 100 µM. For COc1ccccc1CCc1cc(OC)c(OC)c(OC)c1, the TGI was > 100 µM. With COc1cc2c(cc1OC)C(CC(=O)NN=C(C)C)NCC2 (configuration not stated) the TGI was > 100 µM. With COC(=O)/C(=N\Nc1nnc(C)n1N)C(C#N)c1ccc(Cl)cc1 (configuration not stated) the TGI was > 100 µM. Cc1cccc(NC(=O)C(=O)C(C(=O)c2ccc3ccccc3c2)C2OC(=O)c3ccccc32)c1C (configuration not stated) showed a TGI of 87.8 µM. In the case of CS/C(N)=N\NC(=O)CCC(=O)Nc1ccccc1C(F)(F)F, the TGI is reported as > 100 µM. With CC(=O)/C(C)=N/NC(=O)c1ccccc1O the GI50 was > 100 µM and the TGI was > 100 µM. In the case of CC(C)(C)c1ccc2c(c1)S(=O)(=O)Nc1ccccc1NS(=O)(=O)c1cc(C(C)(C)C)ccc1OCCOCCOCCO2, the TGI is reported as > 100 µM. Compound CC(=O)[O-].CCN(CC)c1ccc(C=NCCN=Cc2ccc(N(CC)CC)cc2[O-])c([O-])c1.[Mn+3] has a GI50 of 21.3 µM and a TGI of 43.5 µM.
